# Test results from patent US12286443B2, “Bycyclic JAK inhibitors and uses thereof” (Insilico Medicine IP Limited, priority 2019, dated 2025).
# Target: T1, JAK3 (Homo sapiens, UniProt P52333)
# T1 construct: purchased Invitrogen PV4080
# T1 sequence (P52333 1-1124): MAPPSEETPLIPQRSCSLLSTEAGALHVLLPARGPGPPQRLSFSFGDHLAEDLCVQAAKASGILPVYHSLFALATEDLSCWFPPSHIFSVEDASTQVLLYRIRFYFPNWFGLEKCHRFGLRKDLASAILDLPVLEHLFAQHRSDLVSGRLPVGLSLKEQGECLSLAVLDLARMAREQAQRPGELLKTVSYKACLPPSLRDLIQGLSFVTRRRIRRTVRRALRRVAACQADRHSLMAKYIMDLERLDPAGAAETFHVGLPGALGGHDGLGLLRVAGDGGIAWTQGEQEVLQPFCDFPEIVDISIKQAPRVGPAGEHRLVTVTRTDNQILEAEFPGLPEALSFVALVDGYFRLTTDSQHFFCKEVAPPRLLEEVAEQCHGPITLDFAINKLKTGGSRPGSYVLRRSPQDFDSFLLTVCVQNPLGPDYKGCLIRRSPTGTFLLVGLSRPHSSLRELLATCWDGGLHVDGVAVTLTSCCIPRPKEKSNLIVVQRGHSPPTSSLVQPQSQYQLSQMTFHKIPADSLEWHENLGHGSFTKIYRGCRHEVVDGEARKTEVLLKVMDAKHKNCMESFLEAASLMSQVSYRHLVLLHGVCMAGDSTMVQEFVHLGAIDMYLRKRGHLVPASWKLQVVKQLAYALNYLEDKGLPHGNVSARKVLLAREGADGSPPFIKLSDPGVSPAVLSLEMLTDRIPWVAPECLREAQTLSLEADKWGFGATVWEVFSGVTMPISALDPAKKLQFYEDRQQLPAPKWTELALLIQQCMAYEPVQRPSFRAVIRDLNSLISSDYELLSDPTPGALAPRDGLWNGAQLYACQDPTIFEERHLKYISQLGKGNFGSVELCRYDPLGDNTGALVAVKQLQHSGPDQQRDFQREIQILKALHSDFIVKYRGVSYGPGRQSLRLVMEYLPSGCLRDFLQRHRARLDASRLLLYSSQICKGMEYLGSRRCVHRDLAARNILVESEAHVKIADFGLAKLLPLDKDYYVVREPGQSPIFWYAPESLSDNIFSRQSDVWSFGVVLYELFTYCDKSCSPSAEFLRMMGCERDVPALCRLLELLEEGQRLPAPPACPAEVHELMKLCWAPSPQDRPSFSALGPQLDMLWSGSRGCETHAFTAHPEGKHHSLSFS
# Assay: Inhibition of JAK3 kinase, LANCE Ultra TR-FRET assay
# Format: biochemical
# Details: 2x ATP 8 μM, 15 min pre-incubation, 90 min reaction, 23° C.
# Procedure: (§1) Exemplary compounds were assayed to determine potency in inhibiting activity of JAK1-3 and TYK2 kinases by determining IC50 values.
# (§2) The sources of test materials and equipment are as follows: JAK1 (Invitrogen, Cat. No PV4775), JAK2 (Invitrogen, Cat. No PV4210), JAK3 (Invitrogen, Cat. No PV4080), TYK2 (Invitrogen, Cat. No PR8440C), ATP (Sigma, Cat. No. A7699-1G), DMSO (Sigma, Cat. No. D2650), DTT (Sigma, Cat. No. 43815), 384 wells_compound plate (Greiner, Cat. No. 781280), 384 wells_assay plate (Perkin Elmer, Cat. No. 6007299), LANCE Ultra ULight™-JAK-1 peptide (Perkin Elmer, Cat. No. TRF0121), LANCET™ Eu-W1024 Anti-phosphotyrosine (PT66) (Perkin Elmer, Cat. No. AD0069), LANCET™ Detection Buffer(Perkin Elmer, Cat. No. CR97-100).
# (§3) The concentrations of test compounds varied from 100 μM to 1.7 nM with 3-fold dilution, 11 points, in duplicates while the concentrations of the reference compound, Tofacitinib, varied from 1 μM to 0.017 nM with 3-fold dilution, 11 points, in duplicates.
# (§4) The assay buffer contained 50 mM HEPES (pH 7.5), 0.01% Brij-35, 10 mM MgCl2, 1 mM EDTA, 2 mM DTT. Incubations were carried out at 23° C.
# (§5) Prior to the assay, enzyme, peptide substrate and serially diluted test compounds were pre-incubated together in assay buffer (5 μL) for 15 minutes (peptide substrate concentration: 50 nM; JAK enzyme concentrations: 2 nM JAK1; […]; […] and 4 nM TYK2). And the assay was initiated by the addition of 5 μL assay buffer containing 2× final ATP concentration (these are the 2×ATP concentrations: 76 μM JAK1; 24 μM JAK2; 8 μM JAK3 and 30 μM TYK2). Following the 90-minute incubation, antibody conjugated with Eu is dissolved in detection buffer to add into wells and then incubated for 60 minutes. The 10 μL detection buffer contains EDTA to stop the enzymatic reaction. The plate is analyzed by Perkin Elmer Envision on TR-FRET mode. The high ratio of 665/615 represents no inhibition of kinase reaction while the low ratio of 665/615 represents complete inhibition of kinase reaction.
# (§6) Curves are fit by XLFIT5 as inhibition rate % vs. log [compound concentration] using 4 parameters logistic model 205.
# (§7) In the table, “A” indicates an IC50 of less than 100 nM, “B” indicates an IC50 range from 100 nM to 500 nM; “C” indicates an IC50 range from 500 nM to 2 μM; and “D” indicates an IC50 greater than 2 μM. Also, “na” indicates data is not available.
row,Compound,IC50
1,CS(=O)(=O)N1CCC(CCNC(=O)c2noc3c2CN(c2ncnc4[nH]ccc24)CC3)C1 (centres unmarked) [Compound 165],> 2000 nM
2,O=C(NCCC1CC1)c1n[nH]c2c1CN(c1ncnc3[nH]ccc13)CC2 [Compound 138],< 100 nM
3,Cc1cnc(CCNC(=O)c2noc3c2CN(c2ncnc4[nH]ccc24)CC3)o1 [Compound 139],> 2000 nM
4,O=C(NCCC(F)(F)F)c1nn(C2CCNCC2)c2c1CN(c1ncnc3[nH]ccc13)CC2 [Compound 101],500 to 2000 nM

# The next lines start with the values.
row,IC50,Compound
1,< 100 nM,CNS(=O)(=O)CCNC(=O)c1noc2c1CN(c1ncnc3[nH]ccc13)CC2 [Compound 157]
2,100 to 500 nM,CS(=O)(=O)N1CC(CCNC(=O)c2noc3c2CN(c2ncnc4[nH]ccc24)CC3)C1 [Compound 169]
3,500 to 2000 nM,CN(C)C1CN(CCNC(=O)c2noc3c2CN(c2ncnc4[nH]ccc24)CC3)C1 [Compound 160]
4,100 to 500 nM,O=C(NCCCC1(O)CC1)c1noc2c1CN(c1ncnc3[nH]ccc13)CC2 [Compound 145]

# Target: T2, JAK1 (Homo sapiens, UniProt P23458)
# T2 construct: purchased Invitrogen PV4775
# Assay: Inhibition of JAK1 kinase, LANCE Ultra TR-FRET assay
# Format: biochemical
# Details: 2 nM JAK1, 2x ATP 76 μM, 15 min pre-incubation, 90 min reaction, 23° C.
# Procedure: as §1, §2, §3, §4, §5, §6, §7
# T2 sequence (P23458 whole entry): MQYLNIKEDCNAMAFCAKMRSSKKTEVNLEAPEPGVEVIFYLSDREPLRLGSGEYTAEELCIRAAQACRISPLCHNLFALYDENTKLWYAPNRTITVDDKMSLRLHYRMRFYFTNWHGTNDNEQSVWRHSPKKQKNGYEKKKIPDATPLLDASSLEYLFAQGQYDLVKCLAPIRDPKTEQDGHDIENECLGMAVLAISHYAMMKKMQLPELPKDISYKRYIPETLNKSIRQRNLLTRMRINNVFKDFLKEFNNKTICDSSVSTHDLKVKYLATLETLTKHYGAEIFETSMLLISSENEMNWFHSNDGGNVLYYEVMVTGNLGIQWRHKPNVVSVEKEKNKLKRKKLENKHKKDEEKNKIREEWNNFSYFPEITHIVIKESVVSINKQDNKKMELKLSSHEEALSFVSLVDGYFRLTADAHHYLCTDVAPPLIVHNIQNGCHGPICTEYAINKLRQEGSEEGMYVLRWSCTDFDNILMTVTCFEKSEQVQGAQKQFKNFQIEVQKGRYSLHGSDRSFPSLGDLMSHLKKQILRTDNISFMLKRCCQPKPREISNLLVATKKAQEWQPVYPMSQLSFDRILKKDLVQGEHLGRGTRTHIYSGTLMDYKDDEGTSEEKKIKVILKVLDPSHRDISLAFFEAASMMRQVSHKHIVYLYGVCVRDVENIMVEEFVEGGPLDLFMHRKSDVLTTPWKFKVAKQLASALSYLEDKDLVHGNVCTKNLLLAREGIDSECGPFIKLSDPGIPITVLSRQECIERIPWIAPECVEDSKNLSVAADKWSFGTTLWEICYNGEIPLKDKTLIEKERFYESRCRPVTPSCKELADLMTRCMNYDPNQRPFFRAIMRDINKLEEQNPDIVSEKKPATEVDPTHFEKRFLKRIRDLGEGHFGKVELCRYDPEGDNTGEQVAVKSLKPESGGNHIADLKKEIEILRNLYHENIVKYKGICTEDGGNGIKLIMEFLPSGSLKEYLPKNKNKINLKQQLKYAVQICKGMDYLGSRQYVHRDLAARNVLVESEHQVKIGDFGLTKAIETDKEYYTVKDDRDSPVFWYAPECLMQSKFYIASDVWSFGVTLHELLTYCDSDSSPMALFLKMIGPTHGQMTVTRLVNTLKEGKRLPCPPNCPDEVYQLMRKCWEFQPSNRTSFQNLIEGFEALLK
row,Compound,IC50
1,CS(=O)(=O)N1CCC(CCNC(=O)c2noc3c2CN(c2ncnc4[nH]ccc24)CC3)C1 (centres unmarked) [Compound 165],> 2000 nM
2,O=C(NCCC1CC1)c1n[nH]c2c1CN(c1ncnc3[nH]ccc13)CC2 [Compound 138],100 to 500 nM
3,Cc1cnc(CCNC(=O)c2noc3c2CN(c2ncnc4[nH]ccc24)CC3)o1 [Compound 139],> 2000 nM
4,O=C(NCCC(F)(F)F)c1nn(C2CCNCC2)c2c1CN(c1ncnc3[nH]ccc13)CC2 [Compound 101],> 2000 nM

# Next, values leading:
row,IC50,Compound
1,< 100 nM,CNS(=O)(=O)CCNC(=O)c1noc2c1CN(c1ncnc3[nH]ccc13)CC2 [Compound 157]
2,500 to 2000 nM,CS(=O)(=O)N1CC(CCNC(=O)c2noc3c2CN(c2ncnc4[nH]ccc24)CC3)C1 [Compound 169]
3,500 to 2000 nM,CN(C)C1CN(CCNC(=O)c2noc3c2CN(c2ncnc4[nH]ccc24)CC3)C1 [Compound 160]
4,100 to 500 nM,O=C(NCCCC1(O)CC1)c1noc2c1CN(c1ncnc3[nH]ccc13)CC2 [Compound 145]

# Target: T3, TYK2 (Homo sapiens, UniProt P29597)
# T3 construct: purchased Invitrogen PR8440C
# Assay: Inhibition of TYK2 kinase, LANCE Ultra TR-FRET assay
# Format: biochemical
# Details: 4 nM TYK2, 2x ATP 30 μM, 15 min pre-incubation, 90 min reaction, 23° C., read-out: tyk IC50
# Procedure: as §1, §2, §3, §4, §5, §6, §7
# T3 sequence (P29597 whole entry): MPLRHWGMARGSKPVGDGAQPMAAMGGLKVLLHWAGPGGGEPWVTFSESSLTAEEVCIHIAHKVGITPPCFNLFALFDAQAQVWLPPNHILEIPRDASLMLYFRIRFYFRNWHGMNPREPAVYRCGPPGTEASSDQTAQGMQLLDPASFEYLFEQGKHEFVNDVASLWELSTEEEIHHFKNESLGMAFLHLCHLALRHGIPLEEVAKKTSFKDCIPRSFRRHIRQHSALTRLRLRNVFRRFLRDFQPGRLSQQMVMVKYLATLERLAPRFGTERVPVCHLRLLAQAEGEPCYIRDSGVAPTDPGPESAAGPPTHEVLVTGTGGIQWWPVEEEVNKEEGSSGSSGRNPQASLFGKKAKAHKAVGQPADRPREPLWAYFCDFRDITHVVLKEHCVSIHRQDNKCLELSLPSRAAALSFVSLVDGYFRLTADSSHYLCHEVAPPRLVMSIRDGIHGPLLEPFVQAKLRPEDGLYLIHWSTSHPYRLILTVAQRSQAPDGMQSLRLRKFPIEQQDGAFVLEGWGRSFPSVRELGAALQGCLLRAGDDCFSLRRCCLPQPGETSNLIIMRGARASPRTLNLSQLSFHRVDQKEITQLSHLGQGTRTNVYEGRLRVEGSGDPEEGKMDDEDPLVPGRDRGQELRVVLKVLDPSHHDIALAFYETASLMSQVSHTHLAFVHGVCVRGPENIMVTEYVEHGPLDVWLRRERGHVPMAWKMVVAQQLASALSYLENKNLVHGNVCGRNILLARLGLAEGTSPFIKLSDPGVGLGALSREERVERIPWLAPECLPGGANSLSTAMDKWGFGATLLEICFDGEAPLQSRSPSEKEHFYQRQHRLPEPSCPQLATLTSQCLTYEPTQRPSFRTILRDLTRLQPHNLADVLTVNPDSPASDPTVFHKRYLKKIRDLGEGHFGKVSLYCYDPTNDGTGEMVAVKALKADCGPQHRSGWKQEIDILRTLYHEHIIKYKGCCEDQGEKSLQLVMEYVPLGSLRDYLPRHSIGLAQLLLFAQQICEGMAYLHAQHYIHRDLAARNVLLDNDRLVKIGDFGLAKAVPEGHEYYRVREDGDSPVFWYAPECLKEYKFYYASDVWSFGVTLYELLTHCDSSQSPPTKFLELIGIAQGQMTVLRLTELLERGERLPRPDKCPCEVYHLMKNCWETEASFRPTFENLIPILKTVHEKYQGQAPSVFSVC
row,Compound,IC50
1,CS(=O)(=O)N1CCC(CCNC(=O)c2noc3c2CN(c2ncnc4[nH]ccc24)CC3)C1 (centres unmarked) [Compound 165],> 2000 nM
2,O=C(NCCC1CC1)c1n[nH]c2c1CN(c1ncnc3[nH]ccc13)CC2 [Compound 138],500 to 2000 nM
3,Cc1cnc(CCNC(=O)c2noc3c2CN(c2ncnc4[nH]ccc24)CC3)o1 [Compound 139],> 2000 nM
4,O=C(NCCC(F)(F)F)c1nn(C2CCNCC2)c2c1CN(c1ncnc3[nH]ccc13)CC2 [Compound 101],> 2000 nM

# Other lines, results leading:
row,IC50,Compound
1,> 2000 nM,CNS(=O)(=O)CCNC(=O)c1noc2c1CN(c1ncnc3[nH]ccc13)CC2 [Compound 157]
2,> 2000 nM,CS(=O)(=O)N1CC(CCNC(=O)c2noc3c2CN(c2ncnc4[nH]ccc24)CC3)C1 [Compound 169]
3,> 2000 nM,CN(C)C1CN(CCNC(=O)c2noc3c2CN(c2ncnc4[nH]ccc24)CC3)C1 [Compound 160]
4,> 2000 nM,O=C(NCCCC1(O)CC1)c1noc2c1CN(c1ncnc3[nH]ccc13)CC2 [Compound 145]

# Target: T4, JAK2 (Homo sapiens, UniProt O60674)
# T4 construct: purchased Invitrogen PV4210
# Assay: Inhibition of JAK2 kinase, LANCE Ultra TR-FRET assay
# Format: biochemical
# Details: 2x ATP 24 μM, 15 min pre-incubation, 90 min reaction, 23° C.
# Procedure: as §1, §2, §3, §4, §5, §6, §7
# T4 sequence (O60674 whole entry): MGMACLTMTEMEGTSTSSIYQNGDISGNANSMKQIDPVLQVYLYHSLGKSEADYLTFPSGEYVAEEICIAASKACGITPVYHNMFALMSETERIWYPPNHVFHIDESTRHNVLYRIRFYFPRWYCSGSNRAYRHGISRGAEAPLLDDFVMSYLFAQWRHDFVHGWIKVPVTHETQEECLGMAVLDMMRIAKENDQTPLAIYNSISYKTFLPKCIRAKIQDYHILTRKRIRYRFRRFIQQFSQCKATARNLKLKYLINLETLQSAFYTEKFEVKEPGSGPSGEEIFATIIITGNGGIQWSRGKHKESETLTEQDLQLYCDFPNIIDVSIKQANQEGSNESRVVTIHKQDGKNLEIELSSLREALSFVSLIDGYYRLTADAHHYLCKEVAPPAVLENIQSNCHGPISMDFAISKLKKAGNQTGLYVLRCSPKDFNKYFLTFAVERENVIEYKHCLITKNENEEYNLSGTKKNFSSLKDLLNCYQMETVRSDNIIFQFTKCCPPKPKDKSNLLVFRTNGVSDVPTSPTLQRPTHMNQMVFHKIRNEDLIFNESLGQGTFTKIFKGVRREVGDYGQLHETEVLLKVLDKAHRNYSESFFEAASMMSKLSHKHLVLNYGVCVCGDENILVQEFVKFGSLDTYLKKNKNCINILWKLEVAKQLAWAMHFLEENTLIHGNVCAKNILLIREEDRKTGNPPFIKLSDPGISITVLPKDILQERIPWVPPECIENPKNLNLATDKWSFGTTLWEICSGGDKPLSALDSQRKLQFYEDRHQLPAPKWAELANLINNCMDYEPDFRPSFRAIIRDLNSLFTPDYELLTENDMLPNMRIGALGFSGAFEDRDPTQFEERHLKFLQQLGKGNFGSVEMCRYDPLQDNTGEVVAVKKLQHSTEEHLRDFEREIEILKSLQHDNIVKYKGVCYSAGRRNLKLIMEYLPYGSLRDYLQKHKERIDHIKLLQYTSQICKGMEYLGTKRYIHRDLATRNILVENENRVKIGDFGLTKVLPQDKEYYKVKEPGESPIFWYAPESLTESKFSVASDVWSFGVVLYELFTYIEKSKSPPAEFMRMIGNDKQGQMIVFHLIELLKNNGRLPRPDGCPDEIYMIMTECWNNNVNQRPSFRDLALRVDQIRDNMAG
row,Compound,IC50
1,CS(=O)(=O)N1CCC(CCNC(=O)c2noc3c2CN(c2ncnc4[nH]ccc24)CC3)C1 (centres unmarked) [Compound 165],> 2000 nM
2,O=C(NCCC1CC1)c1n[nH]c2c1CN(c1ncnc3[nH]ccc13)CC2 [Compound 138],100 to 500 nM
3,Cc1cnc(CCNC(=O)c2noc3c2CN(c2ncnc4[nH]ccc24)CC3)o1 [Compound 139],> 2000 nM
4,O=C(NCCC(F)(F)F)c1nn(C2CCNCC2)c2c1CN(c1ncnc3[nH]ccc13)CC2 [Compound 101],> 2000 nM

# Now from value to molecule:
row,IC50,Compound
1,100 to 500 nM,CNS(=O)(=O)CCNC(=O)c1noc2c1CN(c1ncnc3[nH]ccc13)CC2 [Compound 157]
2,500 to 2000 nM,CS(=O)(=O)N1CC(CCNC(=O)c2noc3c2CN(c2ncnc4[nH]ccc24)CC3)C1 [Compound 169]
3,> 2000 nM,CN(C)C1CN(CCNC(=O)c2noc3c2CN(c2ncnc4[nH]ccc24)CC3)C1 [Compound 160]
4,500 to 2000 nM,O=C(NCCCC1(O)CC1)c1noc2c1CN(c1ncnc3[nH]ccc13)CC2 [Compound 145]
